Values of other authors in US11166974B2, “Ophthalmic solution comprising Diquafosol” (Santen Pharmaceutical Co., Ltd., priority 2012, dated 2021).

Tested on: corneal epithelium disorder of dry eye patients
Settings: instillation of an ophthalmic solution; NPD 1

## O=c1ccn([C@@H]2O[C@H](COP(=O)([O-])OP(=O)([O-])OP(=O)([O-])OP(=O)([O-])OC[C@H]3O[C@@H](n4ccc(=O)[nH]c4=O)[C@H](O)[C@@H]3O)[C@@H](O)[C@H]2O)c(=O)[nH]1.[Na+].[Na+].[Na+].[Na+] [diquafosol tetrasodium salt]
  corneal epithelium disorder of dry eye patients: improved corneal epithelium disorder
